Results reported in patent US20260327217A1, “THIAZOLE DERIVATIVES AS TAU AGGREGATION INHIBITORS” (WisTa Laboratories Ltd., priority 2022, published 2026).
“Also recorded” adds a separate entry of the source. Where a name gives a salt, the structure may show the parent alone. Read-outs that look alike come from different tables or passages of the source.

Tests used:
[1] = target: T1, full-length tau (T40; htau40 isoform) / truncated tau (12-kDa fragment) in 3T6 fibroblast cells (Homo sapiens, UniProt P10636); assay: cellular tau aggregation inhibition assay (truncated 12-kDa tau / full-length T40 band ratio on immunoblots); type: cell-based; details: for activity at 2 µM / activity at 20 µM: single concentration test, vs untreated cells, ~1.0 negative, <0.5 positive inhibitor, read-out: Truncated tau/T40 ratio (n = 3); for activity at 20 µM: tested at 20 μM
T1 construct: fibroblast cells (3T6) express full-length tau; PHF-core tau fragment (12-kDa fragment); expressed in transfected cells; host or cells: 3T6 fibroblast cells
Procedure: A cell-based tau aggregation assay was performed as described previously. The process is described in more detail in WO 02/055720. In essence, fibroblast cells (3T6) express full-length tau (“T40”; the htau40 isoform) under control of an inducible promotor, and low constitutive levels of the PHF-core tau fragment (12-kDa fragment). When T40 expression is induced, it undergoes aggregation-dependent truncation within the cell, N-terminally at approximately amino acid residue 295 and C-terminally at approximately residue 390, thereby producing higher levels of the 12-kDa PHF-core domain fragment. Production of the 12-kDa fragment can be blocked in a dose-dependent manner by tau-aggregation inhibitors. Indeed, the quantitation of inhibitory activity of compounds with respect to proteolytic generation of the 12-kDa fragment within cells can be described entirely in terms of the same parameters which describe inhibition of tau-tau binding in vitro. That is, the extent of proteolytic generation of the 12-kDa fragment within cells is determined entirely by the extent to tau-tau binding through the repeat domain.
[…] MTC was included as a reference tau aggregation inhibitor. For single concentration tests. The ratio of the quantity of both of the protein bands at different concentrations of TAI is measured, to correct for the level of expression of full-length tau and for cell density, particularly at high concentration of TAIs.
The inhibitory ratio (IR) is calculated by the equation:
Where IR^x=inhibitory ratio for compound at x mM; S=signal on immunoblot (mean) for truncated tau (trunc. tau) or full-length tau (full tau) bands for compound at 0 or x mM. A ratio of 1.0 indicates no effect, whereas values decreasing from 1.0 indicate increasing inhibitory action. A curve is generated for different concentrations and the EC50 value for the TAI is defined as the concentration at which the ratio of truncated tau: full-length tau is 50% of that ratio measured in the absence of TAI; this is determined graphically.
The concentration at which there is 50% inhibition of the 12-kDa band relative to T40 (referred to as the EC50 value) was calculated from a graph of the protein band ratios relative to those observed in untreated cells.

[2] = toxicity in cells (lactate dehydrogenase assay, 24 hrs); type: cell-based; details: mouse, 3t6 fibroblasts; concentration at which 50% of cells are killed; 24 hrs exposure; read-out: LD50
Procedure: Toxicity of the compounds described herein was assessed using the fibroblast cells used in the cell-based assay described above to assess EC50. Toxicity was measured by cell numbers after 24 hrs exposure to the compound using a lactate dehydrogenase assay kit TOX-7 (Sigma Biosciences) according to the manufacturer's instructions after lysis of remaining cells. Alternatively, a kit from Promega UK (CytoTox 96) was used, again according to the manufacturer's instructions. LD50 is determined as the concentration of compound at which 50% of cells are killed.

dGAE = target: T2, dGAE (Homo sapiens, UniProt P10636); assay: solution-phase sandwich ELISA of dGAE assembly (scAb epitope occlusion); type: biochemical; details: 100 μM dGAE, 500 μM inhibitor, 24 h assembly; for assembly-dependent occlusion of epitopes: CA4, CE2, 1G2 and 1D12 epitopes; for 1G2 epitope availability / immunoreactivity: scAb 1G2
T2 construct: HMT or Compound 9 added
Procedure: Recombinant dGAE was produced in a bacterial expression system and assembled in the presence of 10 mM DTT by incubation at 37° C. with agitation for 24 h, as described previously. For testing the pharmacological activity, assembly reactions were performed with 100 μM dGAE and 500 μM tau aggregation inhibitor (Compound 9 or HMT) in Protein Lobind tubes (Eppendorf). Compound 9 was dissolved in DMSO (final 0.5%) and HMT in 10 mM phosphate buffer (PB) supplemented with 10 mM DTT. Control tubes with dGAE+DTT in PB and dGAE+DTT in 0.5% DMSO were also set up to allow for comparison of the extent of aggregation. Following a 24 h assembly reaction, the contents from each tube were mixed by pipetting and samples removed for the immunodetection of exposed epitopes using a solution-phase sandwich ELISA.
Ninety-six well Nunc Maxisorp plates were pre-coated with mAb 423 (10 μg/ml), which specifically recognises tau that is C-terminally truncated at Glu391 in the Pronase-resistant PHF core, washed three times with PBS containing 0.1% Tween 20 (PBST) and then blocked with 2% dried milk (Marvel) in PBS. Doubling dilutions of dGAE assembly samples were added from starting concentrations of 10 μg/ml in PBS and incubated for 1 h at 37° C. Bound tau was then detected using scAbs (10 μg/ml) and incubated for 1 h at 37° C. Anti-human C kappa HRP-conjugated secondary antibody was diluted 1:1,000 in 2% dried milk in PBS and incubated for 1 h at 37° C. Pierce 1-Step Ultra TMB-ELISA Substrate Solution was used to develop the reaction which was subsequently stopped with the addition of 1 M H2SO4. Absorbance was measured at 450 nm.

[3] = target: T1, full-length tau (T40; htau40 isoform) / truncated tau (12-kDa fragment) in 3T6 fibroblast cells; details: previously reported [4, 13]; read-out: EC50 in the cell assay; cited from earlier work
[4] = both AD and frontotemporal dementia; cited from earlier work
[5] = target: T3, truncated tau (residues 297-390; dGA) / dGAE (residues 297-391), tau-tau binding (Homo sapiens, UniProt P10636); assay: in vitro cell-free tau-tau binding assay (B50); details: concentration required to inhibit tau-tau binding by 50%
T3 construct: truncated tau (residues 297-390; dGA); another truncated tau species (residues 297-391; dGAE)
Excerpt: This is described in detail in WO 96/30766 and in [25]. Briefly, a fragment of tau corresponding to the core repeat domain, which has been adsorbed to a solid-phase substrate, is able to capture soluble, full-length tau and bind tau with high affinity. This association confers stability against proteolytic digestion of the aggregated tau molecules. The process is self-propagating and can be blocked selectively by prototype pharmaceutical agents.
More specifically, truncated tau (residues 297-390; dGA) diluted in carbonate buffer (pH 9.6) was bound to the assay plate, and another truncated tau species (residues 297-391; dGAE) was added in the aqueous phase. The aqueous phase binding buffer contained 0.05% Tween-20 and 1% gelatine in phosphate-buffered saline (pH 7.4). Bound dGAE was detected using mAb 423 that recognises a Glu-391 dependent epitope that is absent from the solid-phase dGA.
The concentration of compound required to inhibit the tau-tau binding by 50% is referred to as the B50 value.

[6] = full assay, concentration at which truncated tau:full-length tau ratio is 50% of that without TAI, mean for replicates, NE = no effect, read-out: EC50

T1 sequence (P10636 1-441 isoform P10636-8): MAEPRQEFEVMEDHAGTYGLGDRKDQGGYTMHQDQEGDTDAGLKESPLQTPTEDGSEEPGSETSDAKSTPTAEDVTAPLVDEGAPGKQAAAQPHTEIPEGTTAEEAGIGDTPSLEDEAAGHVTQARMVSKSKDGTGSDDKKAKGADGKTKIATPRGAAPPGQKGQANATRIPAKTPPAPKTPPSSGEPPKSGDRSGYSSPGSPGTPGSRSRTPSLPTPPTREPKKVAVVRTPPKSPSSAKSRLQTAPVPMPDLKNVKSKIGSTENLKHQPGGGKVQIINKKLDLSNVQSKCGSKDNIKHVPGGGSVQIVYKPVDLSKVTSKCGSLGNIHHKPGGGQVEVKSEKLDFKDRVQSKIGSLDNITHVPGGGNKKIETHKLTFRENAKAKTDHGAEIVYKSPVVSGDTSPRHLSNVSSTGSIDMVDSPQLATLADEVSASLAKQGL
T2 sequence (P10636 614-708): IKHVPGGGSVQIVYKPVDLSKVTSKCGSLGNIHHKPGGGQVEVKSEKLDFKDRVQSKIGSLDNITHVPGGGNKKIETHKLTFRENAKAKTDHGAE
T3 sequence (P10636 614-708): as above

SMILES | activity at 2 µM ([1]; >2.0 aggregation enhanced) [%] | CC50 at 24 h [2] [µM] | also measured
Cn1cccc1CNC(=O)c1csc(NS(=O)(=O)CCO)n1 [Compound 11] | 91.7 ± 18.8 | 222 ± 35 | 
CC(C)(C)CCNC(=O)c1csc(NS(=O)(=O)CCO)n1 [Compound 14] |  | 263 ± 39 | EC50 [1, 6]: 3.7 µM; activity at 2 µM ([1]; tested at 2 μM): 38.1 ± 14.6%
CS(=O)(=O)Nc1nc(C(=O)NCc2ccc[nH]2)cs1 [Compound 1] | 501 ± 40.4 | 247 ± 16 | 
Cn1cccc1CNC(=O)c1csc(NS(=O)(=O)CF)n1 [Compound 16] |  | 236 ± 25 | activity at 20 µM [1]: 62.8 ± 5.1%
CN(c1nc(C(=O)NCc2cccn2C)cs1)S(C)(=O)=O [Compound 8] | 7.8 ± 1.4 | 204 ± 39 | 
O=C(NCc1nc2ccc(Cl)cc2[nH]1)c1csc(NS(=O)(=O)CF)n1 [Compound 18] | 14.1 ± 3.9 | 225 ± 38 | 
CC(C)(C)CCNC(=O)c1csc(NS(=O)(=O)CF)n1 [Compound 20] | 80.3 ± 42.4 | 186 ± 13 | 
CNS(=O)(=O)Nc1nc(C(=O)NCc2cc(-c3ccccc3)[nH]n2)cs1 [Compound 23] | 98.5 ± 10.1 | 226 ± 40 | 
O=C(NCc1nc2cc(Cl)ccc2[nH]1)c1csc(NS(=O)(=O)CCO)n1 [Compound 12] |  | 197 ± 11.9 | activity at 20 µM [1]: 101 ± 8.8%
CN(C)c1ccc2c(c1)Sc1cc(N(C)C)ccc1N2 [HMT, Hydromethylthionine, reference compound] |  |  | assembly-dependent occlusion of epitopes (dGAE): assembly-dependent occlusion of these epitopes did not occur; 1G2 epitope availability / immunoreactivity (dGAE): remained partially occluded; CE2 epitope availability / immunoreactivity (dGAE; scAb CE2): became more available in the HMT-treated sample than in the soluble pre-assembly sample; also recorded: prevented the conformational changes in the CE2 epitope responsible for early loss of immunoreactivity; EC50 [3]: 0.6 µM
CS(=O)(=O)Nc1nc(C(=O)NCc2cc(-c3ccccc3)[nH]n2)cs1 [Compound 5] | 72.7 ± 11.3 | 252 ± 23 | 
CN(C)c1ccc2nc3ccc(N(C)C)cc3[s+]c2c1.[Cl-] [MT, reference compound] |  |  | tau aggregation level, % of that measured in its absence ([1]; MT at 1 μM): 9.6%
O=C(NCc1cc(-c2ccccc2)[nH]n1)c1csc(NS(=O)(=O)CF)n1 [Compound 19] | 197 ± 94.6 | 231 ± 38 | 
CN(c1nc(C(=O)NCCC(C)(C)C)cs1)S(C)(=O)=O [Compound 10] | 49.6 ± 9.6 | 191 ± 26 | EC50 [1, 6]: 29 µM
O=C(NCc1ccc[nH]1)c1csc(NS(=O)(=O)CF)n1 [Compound 15] | 120 ± 25.7 | 221 ± 35 | 
CN(C)c1ccc2c(c1)Sc1cc(N(C)C)ccc1N2 [HMTM, Hydromethylthionine mesylate] |  |  | pharmacological activity on clinical decline and brain atrophy [4]: exposure-dependent pharmacological activity on clinical decline and brain atrophy
O=C(NCc1cc(-c2ccccc2)[nH]n1)c1csc(NS(=O)(=O)CCO)n1 [Compound 13] |  | 197 ± 8.1 | activity at 20 µM [1]: 112 ± 16.2%
O=C(NCc1cc2ccccc2[nH]1)c1csc(NS(=O)(=O)CF)n1 [Compound 17] |  | 228 ± 40 | activity at 2 µM ([1]; tested at 2 μM): 53.2 ± 15%
Cn1cccc1CNC(=O)c1csc(NS(C)(=O)=O)n1 [Compound 2] | 86.4 ± 5.9 | 253 ± 40 | 
CN(c1nc(C(=O)NCc2cc(-c3ccccc3)[nH]n2)cs1)S(C)(=O)=O [Compound 9] |  | 80.1 ± 45 | EC50 [1, 6]: 4.82 µM; activity in cell-based aggregation assay (in words) ([1]; qualitative statement): lower potency; activity at 2 µM ([1]; tested at 2 μM): 26.6 ± 6.1%; EC50 ([1]; single experiment, FIG. 2, read-out: EC50 (50% inhibition of the lower 12-kDa band)): 3.65 µM; IC50 [5]: > 500 µM; assembly-dependent occlusion of epitopes (dGAE): Epitope exposure was less complete; 1G2 epitope availability / immunoreactivity (dGAE): comparable to HMT; exposure of the CA4 and 1D12 epitopes (dGAE; scAbs CA4 and 1D12): only partial exposure
CNS(=O)(=O)Nc1nc(C(=O)NCCC(C)(C)C)cs1 [Compound 24] | 349 ± 106 | 235 ± 44 | 
O=C(NCc1nc2cc(Cl)ccc2[nH]1)c1csc(NS(=O)(=O)c2c[nH]c3ccccc23)n1 [Compound 25] |  | 202 ± 9.3 | activity at 20 µM [1]: 91.1 ± 10%; IC50 [5]: 612 µM
CS(=O)(=O)Nc1nc(C(=O)NCc2nc3cc(Cl)ccc3[nH]2)cs1 [Compound 4] | 480 ± 114 | 264 ± 27 | 
CNS(=O)(=O)Nc1nc(C(=O)NCc2nc3cc(Cl)ccc3[nH]2)cs1 [Compound 22] | 136 ± 59.1 | 228 ± 36 | 
O=C(NCc1cc(-c2ccccc2)[nH]n1)c1csc(NS(=O)(=O)c2c[nH]c3ccccc23)n1 [Compound 26] |  | 188 ± 11 | activity at 20 µM [1]: 132 ± 8.4%; IC50 [5]: 616 µM
CS(=O)(=O)Nc1nc(C(=O)NCc2cc3ccccc3[nH]2)cs1 [Compound 3] | 228 ± 44.9 | 212 ± 14 | 
CN(c1nc(C(=O)NCc2ccc[nH]2)cs1)S(C)(=O)=O [Compound 7] | 44.4 ± 20.8 | 216 ± 46 | 
CC(C)(C)CCNC(=O)c1csc(NS(C)(=O)=O)n1 [Compound 6] | 88.8 ± 5.7 | 217 ± 2.7 | 
CNS(=O)(=O)Nc1nc(C(=O)NCc2cc3ccccc3[nH]2)cs1 [Compound 21] | 217 ± 85.6 | 227 ± 30 | 
